Measured values published in US20050222423A1, “Carboxylic acid derivative” (TAISHO PHAR[…]., LTD., priority 2001, published 2005).
In brackets after ≈: the same amount, converted by molar mass.

Columns and labels:
[1] = molecular target: T1, Flt-1 (Homo sapiens, UniProt P17948); assay: VEGF Receptor-Binding Test ([125I]-VEGF binding to NIH3T3 cells in which Flt-1 was forced to be expressed); settings: test compound concentration 1 μg/ml; [125I]-VEGF 25 pM; 90 minutes at 4° C.
T1 construct: expressed in transfected cells; host or cells: NIH3T3 cells (G418-selected)
Procedure: According to the method described in a document (Cell Growth & Differentiation, vol. 7, pp. 213-221, 1996), the following tests were carried out.
NIH3T3 cells, in which Flt-1 was forced to be expressed, were seeded on a 24-well collagen-coated plate (7×10^4 cells/well), and were cultured in Dulbecco's modified Eagle's medium (DMEM) containing 10% bovine serum and 200 μg/ml of Geneticin G418 for 24 hours at 37° C. under an atmosphere of 5% carbon dioxide gas. The cells were preincubated in Buffer A [containing 10 mM HEPES (N-2-hydroxyethylpiperazine-N′-2-ethanesulfonic acid) and 0.1% BSA (bovine serum albumin) in DMEM] for 30 minutes at 4° C. Subsequently, the medium was replaced with Buffer B (containing 10 mM HEPES and 0.5% BSA in DMEM). […] The radioactivity of the lysed cells in each well was measured by means of a gamma counter, and a total binding quantity of [^125I]-VEGF was calculated. Non-specific binding quantity of [^125I]-VEGF was measured by competition assay in the presence of 10 nM non-labeled VEGF. The specific binding quantity of [^125I]-VEGF was calculated from the difference between the total binding quantity of [^125I]-VEGF and non-specific binding quantity of ^125I]-VEGF. The binding inhibition index of the test compounds was calculated by the following equation.

[2] = pH 6.9; phosphate buffer 20 mM; 25° C.

T1 sequence (P17948 27-1338): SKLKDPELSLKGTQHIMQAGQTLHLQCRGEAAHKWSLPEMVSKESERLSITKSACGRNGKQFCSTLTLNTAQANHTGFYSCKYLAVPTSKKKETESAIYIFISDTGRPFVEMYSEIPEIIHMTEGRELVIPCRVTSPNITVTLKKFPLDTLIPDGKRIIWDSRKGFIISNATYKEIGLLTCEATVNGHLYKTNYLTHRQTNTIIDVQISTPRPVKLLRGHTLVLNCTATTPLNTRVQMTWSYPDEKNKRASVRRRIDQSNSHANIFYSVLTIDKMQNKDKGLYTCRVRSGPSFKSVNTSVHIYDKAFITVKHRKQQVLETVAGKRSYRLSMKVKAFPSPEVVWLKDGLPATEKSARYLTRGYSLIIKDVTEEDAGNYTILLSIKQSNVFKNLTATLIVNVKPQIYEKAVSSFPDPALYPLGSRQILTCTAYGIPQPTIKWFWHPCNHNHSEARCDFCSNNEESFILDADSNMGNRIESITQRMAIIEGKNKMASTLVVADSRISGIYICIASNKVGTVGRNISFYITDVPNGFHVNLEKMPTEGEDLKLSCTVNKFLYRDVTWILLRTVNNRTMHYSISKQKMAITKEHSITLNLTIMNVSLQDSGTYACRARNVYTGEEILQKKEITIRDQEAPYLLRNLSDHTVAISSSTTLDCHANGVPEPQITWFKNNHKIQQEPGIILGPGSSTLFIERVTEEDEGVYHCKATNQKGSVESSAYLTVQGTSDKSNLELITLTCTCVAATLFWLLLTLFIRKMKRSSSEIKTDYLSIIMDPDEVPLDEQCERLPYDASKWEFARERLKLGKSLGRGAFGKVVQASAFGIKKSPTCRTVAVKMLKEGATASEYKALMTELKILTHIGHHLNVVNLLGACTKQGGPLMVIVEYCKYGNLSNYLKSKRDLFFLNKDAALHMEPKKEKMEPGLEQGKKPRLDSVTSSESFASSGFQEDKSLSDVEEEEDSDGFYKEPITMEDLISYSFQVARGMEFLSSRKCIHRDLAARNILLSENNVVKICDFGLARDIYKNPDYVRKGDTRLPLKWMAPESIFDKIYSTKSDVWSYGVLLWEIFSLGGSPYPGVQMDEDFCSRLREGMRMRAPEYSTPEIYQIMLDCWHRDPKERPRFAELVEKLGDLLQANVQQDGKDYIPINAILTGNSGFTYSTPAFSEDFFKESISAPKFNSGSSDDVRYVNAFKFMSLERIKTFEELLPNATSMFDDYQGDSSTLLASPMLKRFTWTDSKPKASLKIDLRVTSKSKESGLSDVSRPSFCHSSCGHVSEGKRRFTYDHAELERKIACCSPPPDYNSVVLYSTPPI

With CCCCCCCCCCCCCCCCCCOc1ccc(CCC(=O)Nc2ccc(Oc3ccc(C(=O)O)cc3)c(C(=O)O)c2)cc1 [a, 5-Amino-2-(4-carboxyphenoxy)-N-[3-{4-(1-octadecyloxy)-phenyl}propionyl]benzoic acid] the “Inhibition Index” value [1] was 65% and the Solubility [2] was 0.029 µg/mL (≈ 0.043 µM).
